Experimental data: PubChem BioAssay AID489040 (Sanford-Burnham Center for Chemical Genomics, 2010)
Activity calls are given as the source filed them.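 How the source made its calls: active means mean half-maximal activating concentration from the dose-response fit at or below a set limit; inactive means the rest.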

Target: CHO-XBP1 luciferase reporter, IRE1-XBP1 UPR activation
Assay: activators of IRE1-XBP1 UPR arm, dose response, counter-screen for apoptotic UPR arm activators, CHO-XBP1 cells, luminescence (AID 489040);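 further: reporter read after six hours of compound exposure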

Row | SMILES | EC50
1 | O=C1NC(=O)N(CCc2ccc(F)cc2)C(=O)/C1=C/C=C/c1ccccc1 | > 80 µM (inactive)
2 | O=[N+]([O-])c1cc(O)c2ncccc2c1 | > 80 µM (inactive)
3 | Cc1nn(-c2ccccc2)c(C)c1/C=N/NC(=O)CSc1nc2ccccc2c(=O)n1-c1ccc(Br)cc1 | 9.09 µM
4 | O=C(Nc1ccc(Cl)cc1)/C(=C/c1cccc(O)c1)c1nc2ccccc2s1 | > 80 µM (inactive)
5 | CCCn1c(CC)nc([N+](=O)[O-])c1S(=O)(=O)c1ccccc1 | > 80 µM (inactive)
6 | COc1ccc2c(c1OC)C(=O)OC2Nc1nc(-c2ccccc2)cs1 (stereo not drawn) | > 80 µM (inactive)
7 | Oc1c(CN2CCN(c3ccc(F)cc3)CC2)cc(Cl)c2cccnc12 | > 80 µM (inactive)
8 | CCc1cccc(CC)c1NC(=O)/C(C#N)=C/c1ccccc1C(F)(F)F | > 80 µM (inactive)
9 | Oc1ccc(/C=N/Nc2cc(N3CCOCC3)nc(N3CCOCC3)n2)cc1O | > 80 µM (inactive)
10 | CCn1c(-c2ccccc2)c(C(=O)CCl)c2ccccc21 | > 80 µM (inactive)
11 | CC1=C/C(=N\OC(=O)/C=C/c2ccccc2)C(C)=CC1=O | > 80 µM (inactive)
12 | Cc1cccnc1Nc1nc(-c2ccccn2)cs1 | > 80 µM (inactive)
13 | COc1ccc(-c2csc3nc(-c4ccc(C)cc4)oc(=O)c23)cc1OC | > 80 µM (inactive)
14 | Cc1nn(Cc2c(Cl)cccc2Cl)c(C)c1NC(=O)c1sc2ccccc2c1Cl | inactive
15 | O=C(N/N=C/c1ccc(O)c(O)c1)NC12CC3CC(CC(C3)C1)C2 | 14.2 µM
16 | Cc1ccc(NC(=O)c2ccc(N/N=C/c3cccc(O)c3)c([N+](=O)[O-])c2)cc1 | > 80 µM (inactive)
17 | O=C(/C=C/c1ccc(O)c(O)c1)c1ccccc1O | > 80 µM (inactive)
18 | CCOc1cc(/C=C2/C(=O)ON=C2C)ccc1OCc1ccccc1F | > 80 µM (inactive)
19 | CCc1nnc(NC(=O)c2nc(S(=O)(=O)Cc3ccc(C)cc3)ncc2Cl)s1 | > 80 µM (inactive)
20 | COC(=O)c1ccc(-n2c(C)cc(C(=O)CCl)c2C)cc1 | 9.06 µM
21 | COC(=O)c1cc(=O)n(Cc2ccc3c(c2)OCO3)c(=Nc2ccc(F)c(Cl)c2)s1 | > 80 µM (inactive)
22 | CCOc1ccc(NC(=S)NC(=O)/C=C/c2ccc(OC)c(OC)c2)c([N+](=O)[O-])c1 | > 80 µM (inactive)
23 | O=C(CCC(=O)Nc1ccc(Cl)cc1Cl)N/N=C/c1ccc([N+](=O)[O-])o1 | > 80 µM (inactive)
24 | O=C1Nc2ccccc2/C1=C\C(=O)c1ccccc1 | > 80 µM (inactive)
25 | CCn1cc(C(=O)NC(=S)Nc2sc3c(c2C(=O)OC)CCCCCC3)cn1 | inactive

Row | SMILES | EC50
26 | Cc1ccc(/C=C/C(=O)c2ccc([N+](=O)[O-])o2)cc1 | > 80 µM (inactive)
27 | Cc1ccc(NC(=O)COc2ccc(/C=C3/SC(=Nc4ccccc4)N(Cc4cccnc4)C3=O)cc2)cc1 | inactive
28 | COc1cc(SC#N)ccc1N=Cc1c(C)[nH]n(-c2ccc(Cl)cc2)c1=O | 15.9 µM
29 | COc1ccc(-c2cc(=O)oc3c(C)c(OC(=O)c4cccs4)ccc23)cc1 | > 80 µM (inactive)
30 | COc1ccccc1-c1cc(C(F)(F)F)nc(S(=O)(=O)CCCC(=O)N2CCCCC2C)n1 (stereo not drawn) | > 80 µM (inactive)
31 | O=C(CCl)c1ccc(Cc2ncc(C(F)(F)F)cc2Cl)s1 | > 80 µM (inactive)
32 | CNC[C@@H](Cc1ccccc1)NC[C@@H](CC1CCCCC1)NCCCc1ccccc1 | > 80 µM (inactive)
33 | CCOC(=O)c1c(NC(C)=O)sc2c1CCC(C=O)=C2Sc1ccccc1 | > 80 µM (inactive)
34 | C/C(=N\NC(=O)c1cc2ccccc2cc1O)c1ccccn1 | > 80 µM (inactive)
35 | COC(=O)c1ccc(C(=O)OC)c(NC(=O)CSc2cccc[n+]2[O-])c1 | 9.54 µM
36 | O=C1NC(=O)N(c2ccccc2)C(=O)/C1=C/C=C/c1ccco1 | > 80 µM (inactive)
37 | CC(C)(C)N1CSC(=S)N(Cc2ccccc2)C1 | > 80 µM (inactive)
38 | O=C(NCc1cccnc1)/C(=C/c1ccc(-c2ccc(Cl)cc2)o1)S(=O)(=O)c1ccccc1 | > 80 µM (inactive)
39 | N#C/C(=C\c1ccc([N+](=O)[O-])o1)C(=O)Nc1ccc(F)cc1 | > 80 µM (inactive)
40 | O=S(=O)(Nc1cccc2cccnc12)c1ccc(S(=O)(=O)N2CCCC2)cc1 | > 80 µM (inactive)
41 | COc1ccccc1-c1cc(C(F)(F)F)nc(S(C)(=O)=O)n1 | > 80 µM (inactive)
42 | COc1ccc(N=c2oc3ccc(OC)cc3cc2-c2nc3ccccc3[nH]2)cc1 | 12.5 µM
43 | CC(=O)/C(=C/c1ccccc1)C(=O)Nc1ccccc1C | > 80 µM (inactive)
44 | C/C(=N\NC(=O)c1cc(Br)ccc1O)c1ccccn1 | > 80 µM (inactive)
45 | Cc1nc(SCC(=O)Nc2ccc(F)cc2)c(C#N)c(C)c1CC(=O)c1ccc(Br)cc1 | > 80 µM (inactive)
46 | O=C(COc1ccc2ccccc2c1)N1CCN(Cc2c[nH]c3ccccc23)CC1 | > 80 µM (inactive)
47 | CCOC(=O)c1cc(-c2ccc(/C=C3/C(=O)N(c4ccc(C(=O)O)cc4)N=C3C)o2)ccc1Cl | > 80 µM (inactive)
48 | CCc1nc(N=Nc2c(O)[nH]c3ccccc23)c2c3c(sc2n1)CCC3 | inactive
49 | O=C(Nc1ccc(O)c2c(=O)cc(-c3cccc(Cl)c3)oc12)c1ccccc1Cl | > 80 µM (inactive)
50 | S=c1[nH]nc(-c2cc(-c3ccccc3)n[nH]2)n1/N=C/C(Br)=C/c1ccccc1 | > 80 µM (inactive)

Row | SMILES | EC50
51 | COc1ccc(N=c2oc3c(OC)cccc3cc2C(=O)NCc2ccco2)c(OC)c1 | inactive
52 | COc1cc2nc(NC(=O)c3ccc(Cl)cc3)sc(=O)c2cc1OC | > 80 µM (inactive)
53 | COc1ccc(OC)c(N=Cc2c(O)c3ccccc3oc2=O)c1 | 12 µM
54 | O=C(Nc1nc(-c2ccc(F)c(F)c2)cs1)Nc1ccc(F)cc1F | > 80 µM (inactive)
55 | CC1=NOC(=O)/C1=C\c1ccc(-c2cccc(Cl)c2)o1 | > 80 µM (inactive)
56 | CC(=O)Nc1ccc(N=Cc2c(O)c(C(=O)Nc3ccccc3)cc3ccccc23)cc1 | inactive
57 | O=C(NCc1ccccc1Br)c1cccc2c1C(=O)c1ccc(-c3ccc(OC(F)(F)F)cc3)cc1S2(=O)=O | 17 µM
58 | CCCCCCCCCCn1c2c(c(=N)c3c1CCC3)CCC2 | 19.8 µM
59 | COc1cc(CN2CCN(c3cc(C)ccc3C)CC2)ccc1O | > 80 µM (inactive)
60 | CCOC(=O)C(=Cc1ccc(OCc2ccc([N+](=O)[O-])cc2)c(OC)c1)C(=O)OCC | > 80 µM (inactive)
61 | COc1cc(NS(=O)(=O)c2ccc3ccccc3c2)c2ncccc2c1 | 15.5 µM
62 | COc1cc([N+](=O)[O-])cc(/C=N/NC(=O)c2ccc(NC(=O)c3ccc(C)cc3)cc2)c1O | > 80 µM (inactive)
63 | Cc1ccnc(Nc2nc(-c3ccc(O)c(O)c3)cs2)c1 | > 80 µM (inactive)
64 | N=c1c(-c2nc3ccccc3[nH]2)cc(C(=O)c2ccco2)nn1-c1ccccc1 | > 80 µM (inactive)
65 | CCOC(=O)C(=Cc1ccc(-n2ccnc2)cc1)C(=O)OCC | > 80 µM (inactive)
66 | C=CCSC(=C(C#N)C#N)c1cc2c([nH]1)CCCC2 | > 80 µM (inactive)
67 | COc1ccccc1-c1nnc(Nc2nc3c(OC)cccc3s2)o1 | > 80 µM (inactive)
68 | O=C(O)CC1CCC(=C(Cl)Cl)C1 (stereo not drawn) | > 80 µM (inactive)
69 | CN(C)CC(CCC(CN(C)C)C(O)(c1ccccc1)c1ccccc1)C(O)(c1ccccc1)c1ccccc1 (stereo not drawn) | > 80 µM (inactive)
70 | O=C(Oc1c(CN2CCOCC2)cc(Cl)c2cccnc12)c1ccccc1F | > 80 µM (inactive)
71 | C[C@@H]1C[C@@H]2O[C@H]2/C=C\C=C\C(=O)Cc2c(Cl)c(O)cc(O)c2C(=O)O1 | > 80 µM (inactive)
72 | Cc1ccc(CS(=O)(=O)c2ncc(Cl)c(C(=O)Nc3nnc(C(C)C)s3)n2)cc1 | > 80 µM (inactive)
73 | COc1cc(NC(=O)c2cncc(-c3ccc(C#N)cc3)c2)cc(C(=O)Nc2cccc(C(F)(F)F)c2)c1 | 19.3 µM
74 | O=c1[nH]c(-c2ccc(-c3cccc(Cl)c3)o2)nc2ccccc12 | 15 µM
75 | COc1cccc2sc(Nc3nc(-c4ccccn4)cs3)nc12 | > 80 µM (inactive)

Row | SMILES | EC50
76 | Cc1ccc(C(=O)/C=C/C(=O)c2ccc(C)cc2)cc1 | > 80 µM (inactive)
77 | CCOc1ccccc1N=Cc1c(O)c2ccccc2oc1=O | 10.8 µM
78 | O=C(Nc1ccc(Cc2ccncc2)cc1)c1ccc([N+](=O)[O-])o1 | > 80 µM (inactive)
79 | Oc1ccc(-c2cn3ccccc3n2)cc1O | > 80 µM (inactive)
80 | COc1ccc(N=Cc2c(O)c3ccccc3oc2=O)cc1 | 11.6 µM
81 | O=C(NC1CCCC1)C(c1ccc(F)cc1)N(Cc1ccc(Cl)cc1)C(=O)CCl (stereo not drawn) | > 80 µM (inactive)
82 | Cc1nc([N+](=O)[O-])c(Br)n1CC(=O)c1ccc2ccccc2c1 | > 80 µM (inactive)
83 | C/C(=N\NC(=O)c1ccc(Cl)cc1)c1ccccn1 | > 80 µM (inactive)
84 | O=C(/C=C/Sc1ccccc1)c1ccc(Cl)cc1 | > 80 µM (inactive)
85 | Cc1cccc(CS(=O)(=O)c2ncc(Cl)c(C(=O)Nc3ccc(F)cc3)n2)c1 | > 80 µM (inactive)
86 | Cc1ccc(C(=O)NC(C#N)=C(Cl)Cl)cc1 | > 80 µM (inactive)
87 | COC(=O)[C@@H]1[C@@H](C#N)C2(c3ccccc3-c3ccccc32)N(c2ccc(Cl)cc2)N1C#N | > 80 µM (inactive)
88 | CC(C)(C)C(=O)N1CCN(c2ccc(NC(=O)c3ccc([N+](=O)[O-])o3)cc2)CC1 | > 80 µM (inactive)
89 | Oc1cc(-c2ccncc2)cc2cccnc12 | > 80 µM (inactive)
90 | CC1CCCCC1N1CN=C(Nc2nc3ccccc3s2)NC1 (stereo not drawn) | > 80 µM (inactive)
91 | COc1ccc(/C=C/C(=O)c2ccc([N+](=O)[O-])o2)cc1 | > 80 µM (inactive)
92 | CCOC(=O)/C(=C\c1ccc(Cl)cc1)c1nc2sc(C)c(C)c2c(=O)[nH]1 | > 80 µM (inactive)
93 | Cn1cc(/C=C2\SC(=O)NC2=S)c2ccccc21 | inactive
94 | CCN(CC)S(=O)(=O)c1ccc(N/N=C(\C)c2ccc3c(c2)OCO3)c([N+](=O)[O-])c1 | 17.5 µM
95 | CCc1cc2c(=O)[nH]c(-c3ccccn3)nc2s1 | > 80 µM (inactive)
96 | CC1=NOC(=O)/C1=C\c1ccc(-c2ccc(Cl)cc2Cl)o1 | > 80 µM (inactive)
97 | O=C(Nc1ccc2oc(-c3ccc4ccccc4c3)nc2c1)c1ccc2c(c1)OCCO2 | inactive
98 | Cc1cc(C)c2c(c1)/C(=c1/sc3n(c1=O)CN(c1ccccc1)CN=3)C(=O)N2 | inactive
